Reference: PMC10379611 (International Journal of Molecular Sciences, 2023)
Entries after “also recorded” stand apart in the source; their conditions may differ. Read-outs that look alike come from different tables or passages of the source.

Key:
ABCG2 = biological target: T1, ABCG2 (Homo sapiens, UniProt Q9UNQ0); assay: ABCG2 vesicular transport (lucifer yellow), HEK293 inverted membrane vesicles; conditions: up to 200 μM
T1 sequence (Q9UNQ0 1-655): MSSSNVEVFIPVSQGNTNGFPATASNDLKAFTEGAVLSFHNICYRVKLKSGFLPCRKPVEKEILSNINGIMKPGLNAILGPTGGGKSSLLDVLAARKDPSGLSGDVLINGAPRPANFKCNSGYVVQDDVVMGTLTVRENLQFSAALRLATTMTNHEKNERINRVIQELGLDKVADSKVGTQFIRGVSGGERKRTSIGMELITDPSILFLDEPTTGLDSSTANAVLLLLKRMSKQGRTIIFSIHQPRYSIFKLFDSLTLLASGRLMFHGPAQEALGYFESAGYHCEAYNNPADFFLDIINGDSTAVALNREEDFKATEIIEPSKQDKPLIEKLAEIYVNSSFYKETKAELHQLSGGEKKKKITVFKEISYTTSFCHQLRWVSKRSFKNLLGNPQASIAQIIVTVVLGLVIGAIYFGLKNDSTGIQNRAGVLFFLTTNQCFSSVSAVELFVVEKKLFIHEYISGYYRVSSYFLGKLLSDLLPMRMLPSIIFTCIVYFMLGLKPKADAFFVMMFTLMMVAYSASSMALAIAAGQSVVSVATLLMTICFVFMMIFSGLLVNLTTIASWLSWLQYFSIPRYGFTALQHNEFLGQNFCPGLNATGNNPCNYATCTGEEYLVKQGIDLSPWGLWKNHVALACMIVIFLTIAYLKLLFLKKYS
Description: ABCB1, ABCG2, and ABCC4 HEK293 membrane vesicles were prepared by Solvo Biotechnology, Budapest. The total protein content of membrane vesicle preparations was determined using the Lowry quantitation method and 30 µg (ABCG2) or 50 µg (ABCB1 and ABCC4) total protein/sample was used for the measurements. For ABCG2 vesicular transport, the fluorescent probe Lucifer yellow (LY) was present in the mixture at 5 μM final concentration. […] Uptake of the probe substrates into the inverted membrane vesicles was measured at 37 °C (ABCG2, ABCB1) or at 32 °C (ABCC4) for 10 min (ABCG2), 5 min (ABCB1), or 1.5 min (ABCC4) in the presence or absence of 4 mM Mg-ATP, in 75 μL final volume of the media (0.04 M MOPS-TRIS pH 7.2, 56 mM KCl, 6 mM MgCl2). The known reference inhibitors of the transporters (1 µM Ko143 for ABCG2, 50 µM Verapamil for ABCB1, and 150 µM MK571 for ABCC4) served as controls. Each test compound was dissolved in DMSO and a 0.75 µL volume was added to the samples. A DMSO solvent control was used in each experiment. The transport was stopped by the addition of ice-cold wash buffer to the samples, then rapidly filtered (MSFBN6B, Millipore, Burlington, MA, USA). Filters were washed with ice-cold wash buffer (0.04 M MOPS-TRIS pH 7.2, 70 mM KCl). For LY, vesicles retained on the filters were dissolved in 10% SDS and transferred into a 96-well microplate. After the addition of DMSO as a stabilizer, fluorescence was measured using a plate reader at 427/535 nm (Victor X3 Enspire Perkin-Elmer, Waltham, MA, USA). When radiolabeled compounds were used as substrates, radioactivity retained on the filter was measured by liquid scintillation counting in Optiphase HiSafe liquid (Perkin Elmer MicroBeta2 liquid scintillation counter, Perkin Elmer, Waltham, MA, USA). ATP-dependent transport was calculated by subtracting the values obtained in the presence of AMP from those obtained in the presence of ATP.

OATP1A2 = biological target: T2, OATP1A2 (Homo sapiens, UniProt P46721); assay: OATP1A2 uptake assay (SR101) in overexpressing A431 cells
T2 sequence (P46721 1-670): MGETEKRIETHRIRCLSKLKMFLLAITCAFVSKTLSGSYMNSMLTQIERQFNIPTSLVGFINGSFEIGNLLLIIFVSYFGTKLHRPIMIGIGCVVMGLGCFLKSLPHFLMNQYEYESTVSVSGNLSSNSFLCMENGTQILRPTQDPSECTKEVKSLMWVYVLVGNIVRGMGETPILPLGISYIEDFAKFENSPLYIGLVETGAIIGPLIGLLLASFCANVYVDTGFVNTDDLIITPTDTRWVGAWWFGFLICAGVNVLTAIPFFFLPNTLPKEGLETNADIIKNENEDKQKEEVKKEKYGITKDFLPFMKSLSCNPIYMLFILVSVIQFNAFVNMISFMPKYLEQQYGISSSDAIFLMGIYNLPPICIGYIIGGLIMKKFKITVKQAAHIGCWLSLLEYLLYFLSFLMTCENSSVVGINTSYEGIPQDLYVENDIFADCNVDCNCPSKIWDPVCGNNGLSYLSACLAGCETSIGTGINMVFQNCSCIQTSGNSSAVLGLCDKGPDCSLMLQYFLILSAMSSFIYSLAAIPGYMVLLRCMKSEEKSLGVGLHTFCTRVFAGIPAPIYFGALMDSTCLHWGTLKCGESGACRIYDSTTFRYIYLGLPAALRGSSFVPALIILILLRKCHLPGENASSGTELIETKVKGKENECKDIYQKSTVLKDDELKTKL
Description: To study the function of OATPs, we used A431 cells overexpressing OATP1A2, OATP1B1, OATP1B3, or OATP2B1 and mock-transfected A431 cells, generated as previously described, as controls. The interactions between OATPs and the test compounds were studied in a microplate-based indirect assay by employing fluorescent dye substrates: pyranine for OATP1B1, OATP1B3, OATP2B1 and sulforhodamine 101 for OATP1A2 [44, 45]. Briefly, OATP-overexpressing A431 cells and mock-transfected A431 cells were seeded on 96-well plates (8 × 10^4 cells/well). The next day, the cells were washed three times with phosphate buffered saline (PBS, pH 7.4) and preincubated with 50 μL uptake buffer (125 mM NaCl, 4.8 mM KCl, 1.2 mM CaCl2, 1.2 mM KH2PO4, 12 mM MgSO4, 25 mM MES (2-(Nmorpholino) ethanesulfonic acid, and 5.6 mM glucose, pH 5.5 for OATP2B1 and pH 7.4 for OATP1A2, OATP1B1, or OATP1B3) at 37 °C for 5 min in the presence or absence of the tested compounds. The reaction was started by the addition of a final concentration of 20 μM pyranine (OATP1B1, OATP1B3, OATP2B1) or 0.5 μM sulforhodamine 101 (OATP1A2). After incubation at 37 °C for 10 min, the reactions were stopped and the cells were washed three times with ice-cold PBS. Fluorescence was measured using an Enspire plate reader (Perkin Elmer, Waltham, MA, USA) (Ex/Em: 460/510 nm (pyranine) or 586/605 nm (sulforhodamine 101), and OATP-dependent transport activity was determined by subtracting the fluorescence measured in mock-transfected cells.

ABCB1 = ABCB1 (Homo sapiens, UniProt P08183); assay: ABCB1 vesicular transport (NMQ), HEK293 inverted membrane vesicles; conditions: for effect on ABCB1 NMQ vesicular transport: up to 200 μM
Chain of ABCB1 (P08183 whole entry): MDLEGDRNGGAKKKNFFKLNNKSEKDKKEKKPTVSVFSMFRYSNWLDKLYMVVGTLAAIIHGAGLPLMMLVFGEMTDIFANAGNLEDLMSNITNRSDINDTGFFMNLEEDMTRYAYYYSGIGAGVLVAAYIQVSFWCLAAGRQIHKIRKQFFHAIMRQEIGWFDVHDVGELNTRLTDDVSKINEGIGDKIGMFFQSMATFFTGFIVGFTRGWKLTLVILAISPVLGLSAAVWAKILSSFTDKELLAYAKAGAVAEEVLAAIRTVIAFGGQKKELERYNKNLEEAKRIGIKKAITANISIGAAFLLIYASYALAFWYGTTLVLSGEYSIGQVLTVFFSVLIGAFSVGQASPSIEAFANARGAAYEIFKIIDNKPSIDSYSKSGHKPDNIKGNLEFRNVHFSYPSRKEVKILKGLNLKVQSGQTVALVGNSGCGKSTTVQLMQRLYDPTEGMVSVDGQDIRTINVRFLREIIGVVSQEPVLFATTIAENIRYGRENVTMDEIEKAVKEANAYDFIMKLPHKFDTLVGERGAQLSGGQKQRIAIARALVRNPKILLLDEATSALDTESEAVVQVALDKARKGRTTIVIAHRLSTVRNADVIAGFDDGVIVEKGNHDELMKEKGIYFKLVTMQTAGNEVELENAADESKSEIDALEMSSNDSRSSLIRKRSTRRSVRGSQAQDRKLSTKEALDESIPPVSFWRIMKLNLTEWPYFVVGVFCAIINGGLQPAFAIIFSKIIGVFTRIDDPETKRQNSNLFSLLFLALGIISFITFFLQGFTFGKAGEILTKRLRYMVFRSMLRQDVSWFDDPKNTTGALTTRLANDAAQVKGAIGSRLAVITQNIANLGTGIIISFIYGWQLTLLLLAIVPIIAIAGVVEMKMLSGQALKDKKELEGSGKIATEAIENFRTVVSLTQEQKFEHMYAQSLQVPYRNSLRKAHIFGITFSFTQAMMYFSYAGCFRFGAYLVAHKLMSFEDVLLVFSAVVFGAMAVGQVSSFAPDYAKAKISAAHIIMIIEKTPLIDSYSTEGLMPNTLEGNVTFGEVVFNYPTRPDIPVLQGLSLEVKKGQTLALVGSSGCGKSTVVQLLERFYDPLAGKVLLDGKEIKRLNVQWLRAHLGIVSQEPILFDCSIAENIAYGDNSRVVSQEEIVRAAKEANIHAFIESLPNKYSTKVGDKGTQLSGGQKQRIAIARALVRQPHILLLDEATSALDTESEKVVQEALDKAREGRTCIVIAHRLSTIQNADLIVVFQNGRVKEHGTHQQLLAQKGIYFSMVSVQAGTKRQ

Row | Compound | effect on ABCG2 lucifer yellow vesicular transport (ABCG2) | maximum inhibition of OATP1A2 (OATP1A2; at 200 μM, SR101) | IC50 (OATP1A2; read-out: estimated IC50, OATP1A2, SR101 substrate, A431 cells) | effect on ABCB1 NMQ vesicular transport (ABCB1) | IC50 (OATP1A2) | inhibition at 10 min, 200 µM (OATP1A2; human, A431 cells overexpressing OATP1A2, pH 7.4, probe sulforhodamine 101 (0.5 μM)) | inhibition of OATP1A2 by Nirmatrelvir alone (OATP1A2; at 20 μM) | IC50 at 10 min (OATP1A2; human, pH 7.4) | additional effect of Nirmatrelvir on ABCB1 inhibition by Ritonavir (ABCB1; NIR in combination with RIT)
1 | O=c1nc(NO)ccn1[C@@H]1O[C@H](CO)[C@@H](O)[C@H]1O [EIDD-1931] | neither the function of ABCB1 nor that of ABCG2 was altered | 20–40% | > 200 µM | neither the function of ABCB1 nor that of ABCG2 was altered |  |  |  |  | 
2 | CC(C)C(=O)OC[C@H]1O[C@@H](n2ccc(NO)nc2=O)[C@H](O)[C@@H]1O [EIDD-2801, Molnupiravir] | neither the function of ABCB1 nor that of ABCG2 was altered |  |  | neither the function of ABCB1 nor that of ABCG2 was altered | > 200 µM | 20 to 40% |  |  | 
3 | CC(C)(C)[C@H](NC(=O)C(F)(F)F)C(=O)N1C[C@H]2[C@@H]([C@H]1C(=O)N[C@H](C#N)C[C@@H]1CCNC1=O)C2(C)C [Nirmatrelvir] | not affected; also recorded: negligible effect |  |  | moderate inhibitory effect; also recorded: only a weak inhibitory effect |  |  | only a minor inhibitory effect | 79.5 µM | no additional effect
